The values below come from US11634417B2 (Array BioPharma Inc., priority 2019, dated 2023).

The target in one assay is T1, full-length SHP2 (Homo sapiens, UniProt Q06124).
T1 construct: 1 nM full-length SHP2 (His6-tagged SHP2(2-527), recombinantly expressed in E. coli and purified in-house); His6; made in house; host or cells: E. coli
T1 sequence (Q06124 2-527): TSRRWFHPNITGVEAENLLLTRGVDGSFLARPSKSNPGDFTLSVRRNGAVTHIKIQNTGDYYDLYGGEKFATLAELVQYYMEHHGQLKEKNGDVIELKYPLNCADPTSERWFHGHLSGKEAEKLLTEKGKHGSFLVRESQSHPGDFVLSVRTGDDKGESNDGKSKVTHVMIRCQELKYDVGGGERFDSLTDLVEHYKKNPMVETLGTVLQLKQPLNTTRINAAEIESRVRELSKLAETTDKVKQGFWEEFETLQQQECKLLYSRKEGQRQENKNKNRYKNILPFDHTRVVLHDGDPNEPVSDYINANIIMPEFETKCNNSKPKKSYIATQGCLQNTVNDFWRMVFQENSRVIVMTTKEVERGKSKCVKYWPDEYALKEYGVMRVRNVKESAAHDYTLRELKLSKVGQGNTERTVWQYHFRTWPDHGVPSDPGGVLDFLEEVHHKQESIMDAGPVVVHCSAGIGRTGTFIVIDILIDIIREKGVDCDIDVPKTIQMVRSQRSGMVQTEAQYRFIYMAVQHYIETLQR
The assay can be described thus: SHP2 enzymatic assay (fluorescence intensity kinetic assay, DiFMUP hydrolysis). It counts as biochemical. The settings on record: 1 nM His6-tagged SHP2(2-527), 1 μM activating peptide, 50 μM DiFMUP; single assay or mean of multiple assays; read-out: Biological Example 1 IC50.

The subject of assay [1] is ERK1/2 (Thr202/Tyr204) phosphorylation in KYSE520 cells. The assay can be described thus: Cellular Phospho-p44/42 MAPK (Erk1/2) (Thr202/Tyr204) assay, In-Cell Western. It counts as cell-based. The note with it: Homo sapiens, KYSE-520; KYSE520 cells, 1 hour incubation, pERK signal normalized to GAPDH; single assay or mean of multiple assays; read-out: Biological Example 2 IC50. The essentials:
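KYSE520 cells were treated 1 h with a 10-point 1:3 series (20 μM-1 nM, 0.5% DMSO), then fixed and stained for pERK1/2 (Thr202/Tyr204) and GAPDH by In-Cell Western. pERK signal was normalized to GAPDH per well; IC50 from 4-parameter fit.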

Usually IC50 stands for the point on the concentration scale where inhibition reaches its midpoint.

Consider `Nc1nccc(Sc2cnc(N3CCC4(CC3)Cc3c(Cl)cccc3[C@@H]4N)nn2)c1Cl` [Example 82, (R)-1′-(6-((2-amino-3-chloropyridin-4-yl)thio)-1,2,4-triazin-3-yl)-4-chloro-1,3-dihydrospiro[indene-2,4′-piperidin]-1-amine], for which the half-maximal inhibitory concentration (IC50) on full-length SHP2 was found to be 205 nM; in assay [1] it was 541 nM.
For `N[C@@H]1c2ccccc2CC12CCN(c1ncc(Sc3ccnc(NCCO)c3Cl)nn1)CC2` [Example 83, (S)-2-((4-((3-(1-amino-1,3-dihydrospiro[indene-2,4′-piperidin]-1′-yl)-1,2,4-triazin-6-yl)thio)-3-chloropyridin-2-yl)amino)ethan-1-ol], in that order: 46 nM and 3 nM.
Taken in the same sequence, the figures for `COc1ccc2c(c1)[C@@H](N)C1(CCN(c3ncc(Sc4ccnc(N)c4Cl)nn3)CC1)C2` [Example 84, (S)-1′-(6-((2-amino-3-chloropyridin-4-yl)thio)-1,2,4-triazin-3-yl)-6-methoxy-1,3-dihydrospiro[indene-2,4′-piperidin]-1-amine] were 24 nM and 2 nM.
